Source: patent US20180042227A1, “SYNERGISTIC ANTIMICROBIAL COMPOSITION” (Dow Global Technologies LLC, priority 2015, published 2018)

How the values were obtained:
Format in all cases: cell-based
[1] = system: Pseudomonas aeruginosa DSM # 939; experiment: Minimum Inhibitory Concentration (MIC) test and synergy index, Pseudomonas aeruginosa; details: alone or in the mixture, TSB pH 7.3, 30° C. for 2 days
Protocol: (§1) The synergism of the biocides combination of the present invention was determined using the method described by Kull, F. C., et. al in Applied Microbiology 9:538-541 (1961). […] The Minimum Inhibitory Test (MIC) is designed to evaluate the lowest concentration of a biocide, biocide blend or biocide combination to prevent bacteria, yeast, or fungi from growing in a defined broth. After incubation, the samples are rated based on visually detectable turbidity. This test was carried out with a dilution factor of 1.5 for the biocides. • 1. Test samples were prepared in equal volumes in transparent containers. The biocide dilutions were done in tryptic soy broth (TSB) at pH of 7.3 for the bacteria and in malt extract broth (MEB) at pH 5.4 for the fungi strain. • 16 samples per biocide product and species to be tested were prepared in duplicates by serial dilution with a dilution factor of 1.5. • Per strain of micro-organism two samples not containing any biocide was added as a control. • 2. […] After incubation for 1 day at 30° C. the strains were harvested with buffer pH 7.3. • The concentration of cells was assessed by using a standard viable count technique. • For the inoculum, dilutions were made in buffer pH 7.3. • Yeast culture: [table] • 4. Reading was done visually by a growth/no growth rating. […]

[2] = system: Candida Albicans DSM # 1386; experiment: Minimum Inhibitory Concentration (MIC) test and synergy index, Candida albicans; details: alone or in the mixture, MEB pH 5.4, 28° C. for 2 days
Protocol: The synergism of the biocides combination of the present invention was determined using the method described by Kull, F. C., et. al in Applied Microbiology 9:538-541 (1961). […] The Minimum Inhibitory Test (MIC) is designed to evaluate the lowest concentration of a biocide, biocide blend or biocide combination to prevent bacteria, yeast, or fungi from growing in a defined broth. After incubation, the samples are rated based on visually detectable turbidity. This test was carried out with a dilution factor of 1.5 for the biocides. • 1. Test samples were prepared in equal volumes in transparent containers. The biocide dilutions were done in tryptic soy broth (TSB) at pH of 7.3 for the bacteria and in malt extract broth (MEB) at pH 5.4 for the fungi strain. • 16 samples per biocide product and species to be tested were prepared in duplicates by serial dilution with a dilution factor of 1.5. • Per strain of micro-organism two samples not containing any biocide was added as a control. • 2. […] Reading was done visually by a growth/no growth rating. […]

[3] = system: Staphylococcus Aureus DSM # 799; experiment: Minimum Inhibitory Concentration (MIC) test and synergy index, Staphylococcus aureus; details: alone or in the mixture, TSB pH 7.3, 30° C. for 2 days
Protocol: as §1

SMILES | Minimum Concentration (active ppm) to Inhibit Growth, DTBMA ([1]; DTBMA concentration) | Minimum Concentration (active ppm) to Inhibit Growth, DTBMA ([2]; DTBMA concentration) | Minimum Concentration (active ppm) to Inhibit Growth, DTBMA ([3]; DTBMA concentration) | Minimum Concentration (active ppm) to Inhibit Growth, Diamine ([1]; Diamine concentration) | Minimum Concentration (active ppm) to Inhibit Growth, Diamine ([2]; Diamine concentration) | Minimum Concentration (active ppm) to Inhibit Growth, Diamine ([3]; Diamine concentration)
CNC(=O)c1ccccc1SSc1ccccc1C(=O)NC [DTBMA alone, dithio-2,2′-bis-benzmethylamide] | 222 active ppm | 148 active ppm | 20 active ppm |  |  | 
CCCCCCCCCCCCN(CCCN)CCCN [Diamine alone, N-(3-Aminopropyl)-N-dodecylpropane-1,3-diamine] |  |  |  | 148 active ppm | 148 active ppm | 44 active ppm
